Columns and labels:
[1] = system: ggcsh; test: Expression of nrf2 downstream gene ggcsh in zebrafish; format: in vivo; details: 0.002-1.48 μM, 6 hours
Method: Additionally to FIGS. 6A-6B, but not shown, 5 dpf zebrafish were incubated for 6 hours with vehicle, niclosamide (2 nM to 1.48 μM) and the nrf2 pathway activator […] (DEM) as a positive control, in order to evaluate the effect of niclosamide on ggcsh, a nrf2 downstream target. Ggcsh was previously validated as a Nrf2 downstream target in zebrafish. (Sheets, 2017). Following incubation, the total RNA was isolated from whole fish and processed to measure the induced expression of nrf2 downstream gene ggcsh. […] Additionally, Nrf2a morpholinos morphlinos were prepared, followed by incubation of the zebrafish morphants with cisplatin and/or niclosamide. Zebrafish eggs were injected with 4.5 ng of scrambled morpholino or nrf2a morpholino (5′-[…] SEQ NO: 1). At 3 dpf non-injected and morphant animals were exposed to vehicle, cisplatin (300 μM), cisplatin+niclosamide 18.3 nM or niclosamide alone for 6 hours. Following 1-hour recovery, animals were fixed and processed for immunohistochemistry. Nrf2a KD was confirmed by analyzing expression of Glutathione S-transferase P1 (gstp1), a downstream target, due to lack of proper antibody to detect Nrf2 protein in zebrafish.

[2] = system: A549; test: Survival of A549 cells with or without Cisplatin and Niclosamide; format: cell-based; details: 10 nM
Method: Now referring to FIG. 8, In vitro model of […] incubated with or without Cisplatin and 10 nM of Niclosamide. Cells were maintained in culture with the aid of Matrigel as previously described in Kelley and Driver, Curr. Protoc. Neurosci. Ch.(4); Unit(4); 34.1-10 (2010). After cells had been in culture for 1 d, growth medium DMEM (12430-054; GIB CO Life Technologies, with 1% FBS [16000-044; GIB CO Life Technologies] and 50 μg/ml ampicillin) with or without test compounds may be added for preincubation for 1 hr. at 37° C. in 5% Co2, and may be followed by incubation with 50 μM Cisplatin (479306; Sigma-Aldrich) with or without the test compound in growth medium for 24 hr. at 37° C. A Cisplatin concentration of 50 μM may be used for the explant assay due to its consistent showing of decreases outer hair cells by about −40% in the mouse cochlea after 24 hours. Cochlea may be fixed in 4% PFA and stained for actin with Alex Fluor 568 phalloidin to determine the viability of the HCs. Cochlea may also be stained by DAPI, FM1-43 dye uptake, and immunohistochemical staining for known HC markers (including parvalbumin and myosin 7a. Cochlea may be imaged by confocal microscopy. Two 160-μm regions from middle turns may be photographed, and the number of intact HCs can be counted.

[3] = system: HEI-OC1 cells; test: Caspase-Glo 3/7 assay in HEI-OC1 cells treated with Cisplatin; format: cell-based, mouse
Method: Now referring to FIG. 3A, and FIGS. 3D-3E, compounds protect from cisplatin toxicity in the mouse inner ear cell line. House Ear Institute-Organ of Corti 1 (HEI-OC1) cells (House Research Institute) were maintained in high-glucose Dulbecco's modified Eagle medium supplemented with 10% fetal bovine serum (Life Technologies, USA) at 33° C. and 10% CO2 as previously described (Kalinec et al., 2003). Cells were seeded at 8,000 cells/well in 96 well plates and left to attach overnight. Now referring to FIG. 3A, For the drug screening, HEI-OC1 cells were pretreated with 30 drug candidates at concentrations ranging from 2 nM to 40 μM one hour before receiving cisplatin. The cisplatin dose (50 μM) was based on our previously published dose response curve. The cells were co-incubated with cisplatin and drug candidates for an additional 19 hours prior to Caspase-Glo 3/7 assay (Promega, Madison, WI) as previously shown. Additionally, […] kenpaullone-treated cells were used as positive controls to validate our results. The DMSO concentration in drug preparation was adjusted to 0.1% v/v and it was verified that 0.5% DMSO had no effect on the cell death kinetics (Hall et al., 2014). Results of the assay were run in triplicate and normalized to cisplatin-only and media-only controls. The percent caspase activity was used to determine the relative protective effect of each compound. The luminescence detection representing caspase activity in each well was obtained using a Cytation Hybrid Multi-Mode Reader (Biotek, Winooski, VT, USA). The percent protection of the cells was calculated using caspase 3/7 readouts and the following formula: […]
In the following examples, Niclosamide, 5-chloro-N-(2-chloro-4-nitrophenyl)-2-hydroxy-benzamide, with a ≥95% purity was used for all experiments (Cayman Chemical, USA).

[4] = system: zebrafish neuromast HCs; test: NMDA excitotoxicity in zebrafish neuromast hair cells; format: in vivo; details: 2 nM and 18 nM; 300 μM NMDA
Method: Now referring to FIGS. […], representative samples of the mouse HCs at 32 kHz, the most protected frequency region shown by ABR measurement (FIG. 4E). […] Niclosamide protects NMDA-induced hair cell loss in zebrafish. Application of the N-methyl-d-aspartate (NMDA) to zebrafish neuromast HCs has also been used to mimic glutamate excitotoxicity associated with noise exposure (Katie S. Kindt and Lavinia Sheets, 2018). The results of the HC count following exposure of zebrafish to 300 μM NMDA led to hair-cell loss.
Now referring to FIGS. 5A-5F Niclosamide had protective effects on NIHL in Zebrafish and FVB/NJ mice in vivo. CIHL and NIHL share mechanistic commonalities. Now referring to FIG. 5A, to test whether Niclosamide protects HCs from excitotoxic trauma, a zebrafish model that mimics noise damage was employed, Zebrafish were exposed to the ionotropic glutamate receptor agonist, N-methyl-D-aspartate (NMDA), previously shown to cause progressive HC loss in zebrafish lateral-line organs (Sheets, 2017) with or without niclosamide. 5-dpf larvae were preincubated with 300 μM NMDA for 50 min followed by 2 hours incubation with niclosamide at 2 nM and 18.3 nM.

[5] = system: FVB/NJ mice; test: Safety monitoring of drugs IP in FVB/NJ mice, with or without Cisplatin; format: in vivo, mouse
Method: To investigate the drugs' effects on mammalian auditory function in vivo, we first treated 5-7 weeks old FVB/NJ mice with […] drug candidates: Niclosamide (10 mg/kg/day), Ingenol (0.3 mg/kg/day), Elesclomol (5 mg/kg/day), for 4 consecutive days (IP) to monitor safety of the drugs. All tested doses were determined based on previous published data showing maximum non-toxic dose through intraperitoneal (IP) injection.
Baseline auditory brainstem response (ABR) were measured on 16 mice divided in 3 groups receiving Ingenol, Elesclomol, and Niclosamide. The mice received the drug doses described above, then on day 2 of drug injection mice also received 30 mg/kg Cisplatin (IP; 4 mice per group).

[6] = 20 mg/kg/day IP, 4 consecutive days

O=C(Nc1ccc([N+](=O)[O-])cc1Cl)c1cc(Cl)ccc1O [Niclosamide, 5-chloro-N-(2-chloro-4-nitrophenyl)-2-hydroxy-benzamide] was tested, and the expression of ggcsh [1] was “significantly lowered”, the “effect on Cisplatin-tumor killing activity” value [2] was “did not affect Cisplatin-tumor killing activity” and the “share of the dosage range tested with some level of protection” value ([3]; 2 nM to 40 μM tested) was “over 80%”. For the same molecule, the “protection against Cisplatin damage compared to kenpaullone” value ([3]; HEI-OC1 cells) was “comparable levels of protection to kenpaullone”, the “protection compared to sodium thiosulfate, ebselen, dexamethasone, N-acetylcysteine” value ([3]; HEI-OC1 cells) was “better protection than four other benchmark compounds” and the caspase activity ([3]; at a dosage of ~4.4 μM, Cisplatin 50 μM) was 0%. For the same molecule, the “caspase-3/7 activity relative to control cells” value ([3]; dose of 4.4 μM, Cisplatin 50 μM) was “reduce caspase activity to comparable levels as control cells”, the “HC survival after NMDA” value [4] was “significantly increased HC survival” and the clinical signs [5, 6] was “sign of pain and distress including mouse hunch”. For the same molecule, the weight loss [5, 6] was 20-30%, the “weight loss, pain and distress” value ([5]; Niclosamide 10, Ingenol 0.3, Elesclomol 5 mg/kg/day IP, 4 consecutive days) was “None of the mice showed reduced weight loss or signs of pain and distress” and the “general toxicity versus Cisplatin alone” value ([5]; combination with Cisplatin 30 mg/kg single injection) was “no general toxicity”. For the same molecule, the weight loss ([5]; drug IP daily plus 30 mg/kg Cisplatin IP on day 2) was “less than 10%”, the “weight loss or abnormal behavior” value ([5]; maximum IP doses approved by IACUC) was “no weight loss or abnormal behavior” and the survival ([5]; plus 30 mg/kg Cisplatin, through day 5 post-Cisplatin injection) was “all survived”.
